{"source": "paper PMC6680510", "about": "“Benzotriazine Di-Oxide Prodrugs for Exploiting Hypoxia and Low Extracellular pH in Tumors” (Molecules, 2019)", "key": {"[1]": {"experiment": "One-electron reduction potentials by pulse radiolysis", "assay_type": "physicochemical", "details": "pH 7.0, equilibrium with redox indicator shown in square brackets", "protocol": "One-electron reduction potentials (E^0′) were determined from the redox equilibria with methylviologen, MV^2+, (E^0′ = […], [34]), dimethyldiquat, V21^2+, (E^0′ = […], [35]), or triquat, TQ^2+, (E^0′ = −548 ± 7 mV [34]). […] Substituting the 3-alkanoic sidechain with the 3-aminoalkanoic sidechain on the BTO 1,4-dioxide lowers the E^0′, as does the addition of the cyclopentane ring. The combined effect is seen for 10a, where the E^0′ value is −565 mV, which is expected to be too low for significant bioreduction under hypoxia.\n(§1) Time-resolved optical absorption and kinetic studies were carried out using the University of Auckland’s 4 MeV linear accelerator, which has been previously described. The one-electron reduction potentials of the compounds (A) and couple E^0′(A/A^−), versus normal hydrogen electrode, were determined at pH 7.0 (2.5 mM phosphate) by establishing redox equilibria within 50 μs between three mixtures of one-electron reduced A and the viologen reference compounds, MV^2+, TQ^2+ and V21^2+. The determined equilibrium constants were used to calculate the ΔE values using the Nernst equation, correcting for ionic strength effects, as described in the literature."}, "[2]": {"experiment": "Pulse radiolysis of the radical anion (pKa, decay and oxidation kinetics)", "assay_type": "physicochemical", "source_text": "The free radical chemistry of 7a was investigated by pulse radiolysis and electron paramagnetic resonance (EPR). […] The radical anion decayed slowly under anoxia at pH 7 with mixed kinetics (first-order rate constant of 78 ± 4 s^−1, second-order rate constant of 3.8 ± 0.7 × 10^7 M^−1 s^−1, Figure S3), broadly similar to SN30000 [24]. The second-order rate constant for oxidation of the radical anion of 7a by O2, 5.39 ± 0.40 × 10^6 M^−1 s^−1 (Figure S4), is consistent with the known dependence on E^0′ for BTOs.\nas §1\nMolecules 2019, 24, x FOR PEER REVIEW 3 of 8\nFigure S2. Effect of pH on the change in radical absorption at 490 nm upon one-electron reduction of 7a ([…]) by the CO2.- radical anion following pulse radiolysis (3 Gy in 200 ns) of N2O-saturated solutions containing sodium formate (0.1 M) and buffers (10 mM). Data points, obtained ca. 20 ms […]\nFigure S3. […]\ndependence on increasing radiation dose (radical concentration) of the reciprocal of the first half-life of decay of the radical anion of 7a measured at 490 nm. […]\nFigure S4. Dependence of the first-order rate constant measured at 490 nm for the decay of the radical anion of 7a at pH 7.0, k, on the concentration of O2 in solution following pulse radiolysis (10 Gy in 200 ns). […] The second order rate constant, kO2, calculated from the gradient"}, "[3]": {"experiment": "Protein binding by equilibrium dialysis (FBS, culture medium)", "assay_type": "in vitro ADME", "procedure": "Protein binding of 7a in plasma from NIHIII mice and fetal bovine serum (FBS) assessed\nby equilibrium dialysis using a 12-14KDa cut-off dialysis membrane (HTDialysis, Gales Ferry, CT) as\nBriefly, 100 µL samples of undiluted plasma,\nplasma diluted in PBS, and αMEM with or without FBS containing 7a at 100 μM were dialysed against\n100 µL PBS or αMEM (pH 7.4) in an incubator (Innova-42, New Brunswick Scientific, US ) at 37°C\nwith shaking at 80 rpm for 6 h. Proteins were precipitated with 3 vol of ice-cold MeCN, the"}, "[4]": {"tested_on": "SiHa cells", "experiment": "IC50 assay (inhibition of proliferation, 4 h exposure, SRB)", "details": "SiHa; for IC50: Homo sapiens, 4 h", "how_it_was_run": "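Cells exposed to compound for 4 h in titrated medium, then washed and regrown 5 days under standard conditions (oxia, pHe 7.4). Growth read by sulforhodamine B staining; IC50 from 4-parameter logistic regression of duplicate cultures.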"}, "[5]": {"tested_on": "SiHa cells", "experiment": "Cellular uptake in stirred aerobic single cell suspensions (HPLC, 3H-mannitol correction)", "details": "for Observed Ci/Ce ratio: SiHa", "procedure": "In these experiments, cell pellets were collected by centrifugation and ^3H-mannitol was used as a cell-excluded marker to enable correction for the entrapped extracellular medium.\nLog-phase cultures were dissociated with trypsin/EDTA, followed by the addition of the medium with DNAase I (Sigma DN-25) at 100 μg/mL for 5 min at 37 °C to minimize clumping. The cell pellets were collected by centrifugation and resuspended in αMEM with 5% FBS at pH 7.4 or 6.5 to 2 × 10^6 cells/mL. Samples (12 mL) were equilibrated with magnetic stirring at 37 °C under flowing humidified 5% CO2/air or N2 (50–100 mL/min), as previously described [86]. After equilibration for 60 min, the compounds were added in 50 μL of DMSO. The samples (5 mL) were withdrawn 5 and 60 min later, where the cell pellets were then collected by centrifugation and 4 mL of the supernatant was discarded. The pellets were resuspended in the remaining 1 mL, transferred to microcentrifuge tubes containing 7 μL ^3H-mannitol (740 GBq/mmol, American Radiolabeled Chemicals Inc., St. Louis, MO) as an extracellular marker, and then centrifuged (11,000g × 30s). The supernatant was removed and frozen at −80 °C (extracellular samples) and the tubes were centrifuged again, and any remaining medium was carefully removed. Ice-cold MeOH (80 μL) was added to the pellets which were disrupted by pipetting and stored at −80 °C (intracellular samples). When these were thawed for HPLC analysis (Section 4.12), the volume of extracellular water trapped in the pellets was determined by the scintillation counting (PerkinElmer Tri-Carb B2910TR Liquid Scintillation) of 25 μL of each extracellular and intracellular sample in 3 mL of Emulsifier-Safe™ scintillation cocktail (PerkinElmer). The extracellular volume in each intracellular sample was used to correct the intracellular drug concentration as previously described [87].\nThe samples were analyzed using an Agilent 1200 HPLC with a diode array absorbance detector and autosampler maintained at 4 °C (Agilent Technologies). The frozen samples were thawed, then centrifuged (11,000g × 5 min), and then extracellular samples were injected directly (typically 20 μL), while for the intracellular samples 30 μL was mixed 1:1 with αMEM and 50 μL was injected. […] All calibration curves were linear (R^2 > 0.999). The column was an Agilent ZORBAX Eclipse (XDB-C18, 5u, 2.1 × 150 mm, Agilent Technologies) with a flow rate of 0.4 mL/min. For SN30000 (2), the mobile phase was a mixture of 80% MeCN/water v/v (A), and a 45 mM formate buffer at a pH 4.5, eluting with a linear gradient of 5–100% A over 18 min. The same method was used for the BTO acids, except for 4a, where the aqueous mobile phase pH was reduced to 3.5.\nValues are mean and SEM for 3 replicates. ND: Not detected."}, "[6]": {"experiment": "Measured pKa (potentiometric titration)"}, "[7]": {"experiment": "Solubility in AlphaMEM + 5% FBS, pH 7.4", "details": "culture medium (AlphaMEM + 5% FBS), pH 7.4, plasma or biological fluid, thermodynamic from solid"}, "[8]": {"tested_on": "FaDu cells", "experiment": "IC50 assay (inhibition of proliferation, 4 h exposure, SRB)", "assay_type": "cell-based", "details": "for IC50: Homo sapiens, 4 h", "procedure": "Cells were seeded in 96-well plates (SiHa or FaDu 1500 cells/well, UT-SCC-74B 800 cells/well) in 100 μL. After incubation for 2 h, the drugs were added in 50 μL of the same titrated medium at 3× the final concentration to duplicate the wells. After a further 4 h the plates were checked for drug precipitation using a phase contrast microscope, then drugs were removed by aspirating and washing with the standard (pH 7.4) medium, then aspirating again and adding 150 μL of the medium. Cultures were then grown for 5 days before staining with sulphorhodamine B and measuring absorbance, with the estimation of IC50 values using 4-parameter logistic regression, as previously carried out [85].\nThe medium and plasticware was equilibrated in the chamber for 3 days prior to use. In the anoxia experiments, FaDu cells were plated in poly-L-lysine coated plates (Corning Cat # 356461) to improve attachment."}, "[9]": {"tested_on": "SiHa and SiHa/POR cells", "experiment": "IC50 in SiHa versus SiHa/POR cultures under anoxia", "assay_type": "cell-based", "details": "4 h under anoxia, pHe 7.4", "protocol": "The lack of effect of POR over-expression on the reductive metabolism of the BTO acids in intact cells led us to compare the cytotoxicities of SN30000 (2), 4a, and 7a in SiHa/POR, and the parental line, under anoxia (Figure 6).\nDrug exposure was for 4 h under anoxia, at pHe 7.4, with regrowth under aerobic conditions for 5 days before staining with SRB. Values are means and SEM for the two experiments, each with triplicate cultures at each drug concentration. TEXT PRINTED IN THE PICTURE: Cmpd 2: Ratio 6.75 ± 0.20 | Cmpd 4a: Ratio 3.40 ± 0.22 | Cmpd 7a: Ratio 2.67 ± 0.46"}, "[10]": {"tested_on": "MDCK-II cells with forced expression of BCRP or Pgp", "experiment": "IC50 under anoxia in cells with forced expression of efflux transporters", "details": "MDCK-II cell lines under anoxia, preliminary experiments", "procedure": "expression of BCRP or Pgp.\nCells were seeded at 300 cells/well in DMEM with 10% FBS in 96 well plates in an\nanaerobic chamber, allowed to attach for 2 h then exposed to drugs for 4 h under anoxia. Cells were\nthen washed with fresh medium and grown for 5 days under aerobic conditions before staining with\nSRB. Values are mean ± SEM from 2 separate experiments."}}, "note": "Several values for one entry are separate records, joined by “and”; a condition that tells them apart may be missing. Identical values can stand only once. Like-named read-outs stand apart in the source and are kept apart here."}
{"smiles": "O=C(O)CCc1n[n+]([O-])c2cc3c(cc2[n+]1[O-])CCC3", "note": "[Compound 7a, 3-(2-Carboxyethyl)-7,8-dihydro-6H-indeno[5,6-e][1,2,4]triazine 1,4-Dioxide]", "values": [{"measurement": "E^0′ one-electron reduction potential", "setting": "[1]", "result": "−463 mV and −463 ± 8 [MV^2+, V21^2+] mV"}, {"measurement": "First-order rate constant of radical anion decay", "setting": "[2]; anoxia, pH 7", "result": "78 ± 4", "unit": "s⁻¹"}, {"measurement": "Second-order rate constant of radical anion decay", "setting": "[2]; anoxia, pH 7", "result": "3.8 ± 0.7 × 10^7 M^−1 s^−1"}, {"measurement": "Second-order rate constant for oxidation of the radical anion by O2", "setting": "[2]; pH 7.0", "result": "5.39 ± 0.40 × 10^6 M^−1 s^−1"}, {"measurement": "Protein binding in culture medium with 5 or 10% FBS", "setting": "[3]; 100 μM", "result": "not detectable"}, {"measurement": "fraction unbound at 6 h, 100 µM", "setting": "[3]; bovine, fetal bovine serum (FBS), pH 7.4, FBS, read-out: Protein binding (bound) in FBS (converted)", "result": 0.38}, {"measurement": "IC50", "setting": "[4]; read-out: Anoxic IC50, SiHa, pHe 6.5, 4 h, anoxic", "result": "428 ± 152", "unit": "µM"}, {"measurement": "IC50", "setting": "[4]; read-out: Anoxic IC50, SiHa, pHe 7.4, 4 h, anoxic", "result": "864 ± 277", "unit": "µM"}, {"measurement": "IC50", "setting": "[4]; read-out: Oxic IC50, SiHa, pHe 6.5, 4 h, oxic", "result": "1890 ± 308", "unit": "µM"}, {"measurement": "IC50", "setting": "[4]; read-out: Oxic IC50, SiHa, pHe 7.4, 4 h, oxic", "result": "3720 ± 830", "unit": "µM"}, {"measurement": "TMR (overall TME ratio = oxic IC50 pHe 7.4/anoxic IC50 pHe 6.5)", "setting": "[4]", "result": "8.7 ± 3.6"}, {"measurement": "PCR Anoxic (IC50 at pHe 7.4/IC50 at pHe 6.5)", "setting": "[4]; anoxic", "result": "2.02 ± 0.97"}, {"measurement": "PCR oxic (IC50 at pHe 7.4/IC50 at pHe 6.5)", "setting": "[4]; oxic", "result": "1.97 ± 0.55"}, {"measurement": "ACR (anoxic cytotoxicity ratio = oxic IC50/anoxic IC50)", "setting": "[4]; pHe 6.5", "result": "4.41 ± 1.73"}, {"measurement": "ACR (anoxic cytotoxicity ratio = oxic IC50/anoxic IC50)", "setting": "[4]; pHe 7.4", "result": "4.31 ± 1.58"}, {"measurement": "Observed Ci/Ce ratio", "setting": "[5]; pHe 6.5, approximate value quoted in text", "result": "~ 0.7"}, {"measurement": "Observed Ci/Ce ratio", "setting": "[5]; pHe 7.4, approximate value quoted in text", "result": "~ 0.1"}, {"measurement": "Ci ratio (Ci at pHe 6.5/Ci at pHe 7.4)", "setting": "[5]; aerobic SiHa suspensions, 5 min", "result": "3.9 ± 1.3", "unit": "fold"}, {"measurement": "Ci/Ce, pHe 6.5 Obs 5 min", "setting": "[5]; aerobic SiHa suspensions, pHe 6.5, 5 min", "result": "0.70 ± 0.03"}, {"measurement": "Ci/Ce, pHe 6.5 Obs 60 min", "setting": "[5]; aerobic SiHa suspensions, pHe 6.5, 60 min", "result": "0.75 ± 0.03"}, {"measurement": "Ci/Ce, pHe 7.4 Obs 5 min", "setting": "[5]; aerobic SiHa suspensions, pHe 7.4, 5 min", "result": "0.21 ± 0.08"}, {"measurement": "Ci/Ce, pHe 7.4 Obs 60 min", "setting": "[5]; aerobic SiHa suspensions, pHe 7.4, 60 min", "result": "<0.1"}, {"measurement": "pKa", "setting": "[6]", "result": 4.16}, {"measurement": "solubility", "setting": "[7]", "result": 24.8, "unit": "mM"}, {"measurement": "TMR (oxic IC50 pHe 7.4/anoxic IC50 pHe 6.5)", "setting": "[8]", "result": ">7.9"}, {"measurement": "IC50", "setting": "[8]; pHe 6.5, 4 h, anoxic, read-out: Anoxic IC50", "result": "885 ± 515", "unit": "µM"}, {"measurement": "IC50", "setting": "[8]; pHe 6.5, 4 h, oxic, read-out: Oxic IC50", "result": "4910 ± 1600", "unit": "µM"}, {"measurement": "IC50", "setting": "[8]; pHe 7.4, 4 h, anoxic, read-out: Anoxic IC50", "result": "3260 ± 1070", "unit": "µM"}, {"measurement": "IC50", "setting": "[8]; pHe 7.4, 4 h, oxic, read-out: Oxic IC50", "result": "> 7000", "unit": "µM"}, {"measurement": "PCR oxic (IC50 at pHe 7.4/IC50 at pHe 6.5)", "setting": "[8]; oxic", "result": ">1.4"}, {"measurement": "ACR (oxic IC50/anoxic IC50)", "setting": "[8]; pHe 6.5", "result": "5.55 ± 3.70"}, {"measurement": "ACR (oxic IC50/anoxic IC50)", "setting": "[8]; pHe 7.4", "result": "> 2"}, {"measurement": "IC50 ratio SiHa / SiHa/POR (fold lower IC50 in POR cell line)", "setting": "[9]", "result": "2.67 ± 0.46 and 2.7"}, {"measurement": "Effect of overexpression of BCRP or Pgp efflux transporters on sensitivity", "setting": "[10]", "result": "no effect"}]}
